Holding throughout (assay): growth of human tumour cells (NCI), 48 h
For assay [1], the system named is MDA-MB-231 breast.
The test system of assay [2] is 786-0 renal.
For assay [3], the system named is DU-145 prostate.
Assay [4] relates to HL-60(TB) leukemia.
Assay [5] concerns RXF 393 renal.
Assay [6] relates to RPMI-8226 leukemia.
Assay [7] relates to NCI-H460 lung.
Assay [8] deals with SK-MEL-28 melanoma.
Assay [9] has as its system SK-MEL-2 melanoma.
The subject of assay [10] is SNB-19 CNS.

Structures are written as SMILES. Several values for one entry are separate records, joined by “and”; a condition that tells them apart may be missing. Identical values can stand only once.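 Five concentrations, 48 hours, 96-well plates. The concentration for 50% growth inhibition is given as GI50. At the TGI there is no net growth.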

For the compound `Cn1c2ccccc2c(=O)c2c(O)cc3c(c21)CC(C1(C)CO1)O3` (stereo not given), the TGI in assay [1] came out at 5.85 µM; in [2], 5.06 µM; in assay [3], 36.1 µM; in assay [4], 2.32 µM; in [5], 2.85 µM; in assay [6], 22.6 µM. For the same compound, the TGI in assay [7] was determined as 13.6 µM; in assay [8] it was 7.59 µM; in assay [9], 2.32 µM; in assay [10], 26.9 µM.
On to `NC1CCC(Nc2nc(NCc3cc(Cl)ccc3O)c3ncn(C4CCCC4)c3n2)CC1` (stereo not given), for which the GI50 in assay [1] was 0.186 µM; in [2], 0.211 µM; in assay [3] it was 0.207 µM; in assay [4], 0.165 µM; in assay [5], 0.12 µM; in assay [6], 0.202 µM. In addition, the GI50 is 0.125 µM in assay [7], 0.153 µM in assay [8], 0.188 µM in assay [9] and 0.202 µM in assay [10]. The TGI amounted to 0.759 µM in assay [1]; 0.624 µM in assay [2]; 1.02 µM in assay [3]; 0.388 µM in assay [4]; 0.277 µM in assay [5]; 0.474 µM in assay [6]. Also, the TGI in assay [7] worked out at 0.958 µM; in assay [8] it was 0.34 µM; in assay [9], 0.356 µM; in [10], 1.01 µM.
Consider `O=C1CCCCC=C1C[N+](=O)[O-]`, for which the GI50 in assay [1] is 22.2 µM; in [2], 17.6 µM; in assay [3], 27.3 µM; in assay [4], 14 µM; in [5] it was 14.7 µM; in assay [6] it was 25.5 µM. Further, the GI50 in [7] was 34.3 µM; in [8] it was 28.5 µM; in [9], 19.5 µM; in [10], 42.1 µM. The TGI in assay [1] is 49.4 µM; in [2], 39.6 µM; in assay [3], 96.3 µM; in [4], > 100 µM; in assay [5] it was 35.2 µM; in [6] it was 58.5 µM. The TGI was > 100 µM in [7], 92 µM in [8], 44.4 µM in [9] and > 100 µM in assay [10].
`O=S(=O)(c1ccc(Br)cc1)N1CCN(S(=O)(=O)c2ccc(Br)cc2)CC1`: the TGI in assay [1], in [2], in assay [3], in assay [4], in [5] and in assay [6] was > 100 µM each time. Moreover, the TGI in assay [8], in [9] and in [10] was > 100 µM in each case.
As for `COC(C(=O)C(O)C(C)O)C1Cc2cc3cc(OC4CC(OC5CC(O)C(O)C(C)O5)C(O)C(C)O4)c(C)c(O)c3c(O)c2C(=O)C1OC1CC(OC2CC(O)C(OC3CC(C)(O)C(O)C(C)O3)C(C)O2)C(O)C(C)O1` (stereo not given), the GI50 is 0.0279 µg/mL and 0.032 µg/mL in [1]; 0.0112 µg/mL and 0.0152 µg/mL in assay [2]; 0.0274 µg/mL and 0.0435 µg/mL in assay [3]; 0.00227 µg/mL in assay [4]; 0.0112 µg/mL and 0.000246 µg/mL in [5]; 0.0112 µg/mL and 0.00164 µg/mL in assay [6]. The GI50 was 0.0112 µg/mL and 0.000613 µg/mL in assay [7]; 0.0112 µg/mL and 0.000611 µg/mL in assay [8]; 0.0112 µg/mL and 0.0015 µg/mL in assay [9]; 0.0402 µg/mL in [10]. The TGI was 112 µg/mL and 43.5 µg/mL in assay [1]; 112 µg/mL and 64.7 µg/mL in [2]; 112 µg/mL and 127 µg/mL in assay [3]; 0.188 µg/mL in assay [4]; 0.507 µg/mL and 0.191 µg/mL in assay [6]; > 150 µg/mL in [10].
In the case of `O=C(c1ccco1)c1c(C(F)(F)F)nc2ccc(C(F)(F)F)cc2[n+]1[O-]`, the GI50 in assay [1] was 23.7 µM; in [2], 27 µM; in assay [3] it was 27.3 µM; in [4] it was > 100 µM; in assay [5], 26.5 µM; in [6], > 100 µM. Moreover, the GI50 was > 63.2 µM in assay [7], 25.2 µM in [8], > 64.6 µM in assay [9] and 27.5 µM in assay [10]. The TGI was 65.4 µM in assay [1]; 62 µM in assay [2]; > 75.8 µM in [3]; > 100 µM in assay [4]; 62.2 µM in assay [5]; > 100 µM in assay [6]. For the same compound, the TGI is > 100 µM in [7], 80.6 µM in assay [8], > 100 µM in assay [9] and > 79.7 µM in [10].
With `O=C1C(Nc2ccc(Br)cc2)=C(I)C(=O)c2ncccc21`, the GI50 in [1] was 0.806 µM; in assay [2], 0.905 µM; in [3], 1.14 µM; in [4], 0.96 µM; in assay [5] it was 0.909 µM; in assay [6] it was 0.836 µM. Besides, the GI50 is 1.42 µM in [7], 1.82 µM in assay [8], 1.27 µM in [9] and 1.41 µM in [10]. Besides, the TGI stood at 1.63 µM in [1]; 2.21 µM in assay [2]; 4.26 µM in assay [3]; 2.07 µM in assay [4]; 1.73 µM in [5]; 2.12 µM in assay [6]. Besides, the TGI was 5.01 µM in assay [7], 6.1 µM in assay [8], 4.77 µM in assay [9] and 5.16 µM in assay [10].
On to `CCC(C)[C@H](NC(=O)NC(=O)NC(=O)CI)C(=O)OC` (stereo not given in full), for which the GI50 in [1] is 13.6 µM; in assay [2], 11.3 µM; in assay [3], 15.2 µM; in assay [4] it was 1.6 µM; in assay [5], 4.51 µM; in [6], 3.16 µM. The GI50 is 17.4 µM in assay [7], 13.6 µM in assay [8], 14.2 µM in assay [9] and 15.4 µM in assay [10]. The TGI amounted to 30.7 µM in assay [1]; 23.4 µM in assay [2]; 28.4 µM in assay [3]; 3.4 µM in assay [4]; 15.2 µM in [5]; 9.27 µM in assay [6]. The TGI is 39.4 µM in assay [7], 27.5 µM in [8], 27.3 µM in [9] and 31.6 µM in assay [10].

Values taken from PubChem BioAssay (NCI).
